“Also recorded” adds a separate entry of the source.
Tests used:
Aβ1-40/42 = Aβ1-40/42 levels in LA1-5s neuroblastoma cells; format: cell-based, human; settings: LA1-5s cells
Description: Relative bar values in panel a are mean±SEM of 6 determinations. Asterisks: *, P<0.05; **, P<0.01; ***, P<0.001 (ANOVA). Values in panel b are means of 2-4 determinations.
Shown here are Mean±SEM (N=4) values relative to the mean initial basal or insulin-stimulated level of indicated immunoreactive protein/peptide. Asterisks: *, P<0.05; **, P<0.01; ***, P<0.001 (ANOVA).
Western Analyses. As described, Western analyses were conducted with rabbit antisera or mouse monoclonal antibodies (mMab), using: anti-aPKC (Santa Cruz Biotechnologies, Santa Cruz, CA); anti-phospho-threonine-560/555-PKC-ζ/λ/ι (Invitrogen, Carlsbad, CA); anti-p-serine-256-FoxO1 and anti-FoxO1 (Abnova, Walnut, CA); anti-Akt (mMab), anti-phospho-serine-473-Akt, anti-phospho-serine-9-GSK3P anti-GSK313, anti-phospho-serine-253-FoxO3a, anti-FoxO3a, anti-phospho-serine-256-FoxO1, anti-phospho-serine-193-FoxO4; anti-FoxO1, anti-phospho-serine-2448-mTOR, anti-mTOR, anti-β-amyloid (anti-5-10 kDa-Aβ1-40/42) and anti-amyloid precursor protein (anti-120 kDa-APP) (Cell Signaling Technologies, Danvers, MA); and anti-phospho-serine-202-tau, anti-phospho-threonine-231-tau (Gene Tex, Irvine, CA). Samples from experimental groups were compared on the same blots, and routinely checked with loading controls. Note that: insulin-sensitive 70 kDa aPKC is largely PKC-ζ in mouse brain and orthologous PKC-ι (98% aa homology) in monkey and other primate brains; brain PKC-ζ exists largely as a 50 kDa moiety that, lacking a regulatory domain, is constitutively-active and unresponsive to insulin.

[1] = Het-MλKO mice, reported previously; cited from earlier work
[2] = test system: conventional PKCs, novel PKCs, AMP-dependent protein kinase and Akt; settings: cited from earlier work
aPKC = target: T1, aPKC (Homo sapiens, UniProt P41743); experiment: aPKC activity in LA1-5s neuroblastoma cells; format: cell-based; parameters: endogenous in cells; host or cells: LA1-5s human neuroblastoma cells
T1 sequence (P41743 2-596): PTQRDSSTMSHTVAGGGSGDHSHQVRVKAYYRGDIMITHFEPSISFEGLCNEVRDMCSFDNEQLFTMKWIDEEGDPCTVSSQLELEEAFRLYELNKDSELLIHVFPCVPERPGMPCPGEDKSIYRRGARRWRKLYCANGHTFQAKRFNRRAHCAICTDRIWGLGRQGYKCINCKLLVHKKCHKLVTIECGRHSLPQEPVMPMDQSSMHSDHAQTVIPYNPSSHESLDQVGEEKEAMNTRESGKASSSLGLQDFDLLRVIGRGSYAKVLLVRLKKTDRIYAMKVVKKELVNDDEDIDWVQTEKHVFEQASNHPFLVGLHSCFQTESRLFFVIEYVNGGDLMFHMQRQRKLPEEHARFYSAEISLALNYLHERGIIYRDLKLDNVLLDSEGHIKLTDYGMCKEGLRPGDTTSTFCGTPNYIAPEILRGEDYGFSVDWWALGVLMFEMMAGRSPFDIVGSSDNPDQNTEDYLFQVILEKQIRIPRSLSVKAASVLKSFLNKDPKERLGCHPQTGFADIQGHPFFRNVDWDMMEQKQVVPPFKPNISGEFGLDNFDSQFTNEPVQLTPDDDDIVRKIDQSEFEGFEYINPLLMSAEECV

β-secretase (BACE1) = experiment: brain β-secretase activity (BACE1) in mice; format: in vivo, mouse
From the text: Mouse Studies. Brain samples were obtained from normal and insulin-resistant mice and monkeys used previously, and includes mice originally used in studies of insulin signaling and resistance in liver: (a) 4-6 month old C57Bl/6 mice used in studies of high-fat-feeding [USF Vivarium] [6]; 4-6 month-old male C57Bl/6 ob/ob and lean ob+ mice (Jackson Labs, Bar Harbor, Maine); and (c) 10-12 month-old C57Bl/6 Het-MλKO mice [USF Vivarium] [8]. Males and females were comparably present in experimental groups, and sex didn't appreciably alter combined findings. Hepatic alterations, clinical characteristics and ameliorating effects of liver-selective aPKC inhibitors were reported previously. […] Where indicated, Het-MλKO were injected subcutaneously (SC) once daily for 8 days with saline or 1H-imidazole-4-carboxamide,5-amino]-(2,3-dihydroxy-4-[(phosphono-oxy)methyl]cyclopentane-[1R-(1a,2b,3b,4a)] (ICAPP) 0.4 mg/kg body weight) in saline, to inhibit hepatic aPKC, and thus diminish aPKC-dependent expression of hepatic gluconeogenic and lipogenic enzymes, and thereby reduce serum insulin levels to near-normal. Where indicated normal mice were given a single SC injection of saline or saline containing 1.5 mg/kg ICAPP to follow time-related alterations in brain signaling factors. Where indicated, mice were treated intraperitoneally (IP) with insulin (1 U/kg body weight) or vehicle 15-min before euthanization by administration of Xylazine/Ketamine, followed by whole body perfusion with phosphate-buffered saline and rapid removal of brain and other tissues.
Tissue Preparations. As described, mouse brains were hemisected sagittally, and one-half was frozen in liquid N2, stored at −80° C., and samples thereof were homogenized in buffer containing 0.25M sucrose, 20 mM Tris/HCl (pH, 7.5), 2 mmol/l EGTA, 2 mM EDTA, 1 mM phenlysulfonoylfluoride (PMSF), 20 μg/ml leupeptin, 10 μg/ml aprotinin, 2 mM Na4P2O7, 2 mM Na3VO4, 2 mM NaF, and 1 μM microcystin, and then supplemented with 1% TritonX-100, 0.6% Nonidet and 150 mM NaCl.
β-Secretase Activity (BACE1; beta-site APP-cleaving enzyme-1). β-Secretase was measured was measured using a kit from Thermo-Fisher.

In the case of `NC(=O)c1ncn([C@@H]2C[C@H](COP(=O)(O)O)[C@@H](O)[C@H]2O)c1N` [ICAPP], the “effect on metformin-induced increase in Aβ1-40/42” value (Aβ1-40/42) is listed as “dose-dependently inhibited”, the “effect on insulin-stimulated Aβ1-40/42 levels” value (Aβ1-40/42; 200 nM insulin) is listed as “dose-dependent decreases” and the “serum insulin levels / hyperinsulinemia” value [1] is listed as “fully/sufficiently improved; also recorded: reduced serum insulin levels in Het-MλKO mice to normal”. The “inhibition of conventional PKCs, novel PKCs, AMP-dependent protein kinase and Akt” value [2] was “Neither ICAPP [8] nor ACPD [6,7] inhibit”, the “effect on metformin-induced increase in aPKC activity” value (aPKC; LA1-5s cells) was “dose-dependently inhibited” and the IC50 (aPKC; LA1-5s human neuroblastoma cells, 200 nM insulin, read-out: IC50, inhibition of insulin-stimulated aPKC activity) was 1 to 10 nM. The “resting/basal brain β-secretase activity” value (β-secretase (BACE1); Het-MλKO mice, ICAPP 0.4 mg/kg s.c. once daily for 8 days) was “reduced resting/basal β-secretase activity to near-normal levels”, the “acute insulin-stimulated increases in brain β-secretase activity” value (β-secretase (BACE1); Het-MλKO mice, ICAPP 0.4 mg/kg s.c. once daily for 8 days, insulin 1 U/kg i.p. 15 min) was “fully blocked” and the “insulin-dependent brain β-secretase activity” value (β-secretase (BACE1); normal mice, single s.c. dose of ICAPP 1.5 mg/kg, insulin 1 U/kg i.p. 15 min before killing) was “time-related, well-correlated decreases; also recorded: blocked acute effects of insulin”.

From patent US11865125B2, “APKC inhibitors and methods of treating a neurodegenerative disease or disorder” (UNIVERSITY OF SOUTH FLORIDA, priority 2016, dated 2024)
